One block for each compound: values may come before it.
Columns and labels:
[1] = biological target: T1, Protein arginine N-methyltransferase 5 (Homo sapiens, UniProt O14744); experiment: Inhibition of PRMT5 human PRMT5 using Biotinylated H4 derived peptide and [3H]-SAM as substrate by radioactive methylation assay
A-375 [2] = experiment: Antiproliferation activity against human A-375 cells assessed as cell growth inhibition; type: functional, cell-based
[3] = biological target: T1, Protein arginine N-methyltransferase 5; experiment: Inhibition of PRMT5 (unknown origin) assessed as enzymatic activity by AlphaLISA assay
A-375 [4] = experiment: Anticancer activity against human A-375 cells in xenograft model assessed as tumor growth inhibition at 10 mg/kg, qd on a 4 day-on/3 day-off schedule for 26 days relative to control; type: functional; conditions: A-375, 624 h, time 26 day, read-out: TGI
[5] = Inhibition of Trypanosoma brucei PRMT7 by fluorescence-based SAHH-coupled assay
[6] = biological target: T2, Protein arginine N-methyltransferase 1 (Homo sapiens, UniProt Q99873); experiment: Inhibition of human PRMT1 by fluorescence-based SAHH-coupled assay
[7] = biological target: T1, Protein arginine N-methyltransferase 5; experiment: Inhibition of human PRMT5 using H4R3 S1ac and [3H]-SAM as substrate by AlphaLISA assay
[8] = biological target: T1, Protein arginine N-methyltransferase 5; experiment: Inhibition of PRMT5 (unknown origin) by AlphaLISA assay
[9] = biological target: T1, Protein arginine N-methyltransferase 5; experiment: Inhibition of PRMT5 human PRMT5 using [3H]-SAM as substrate by radioactive methylation assay
Z-138 = experiment: Antiproliferative activity against human Z138 cells assessed as cell growth inhibition measured every 4 days upto 8 days by Cell Titer-Glo Luminescent Cell Viability kit method; type: functional, cell-based
[10] = biological target: T2, Protein arginine N-methyltransferase 1; experiment: Inhibition of human PRMT1 using H4R3 S1ac and [3H]-SAM as substrate by AlphaLISA assay
[11] = biological target: T3, Histone-arginine methyltransferase CARM1 (Homo sapiens, UniProt Q86X55); experiment: Inhibition of human PRMT4 by fluorescence-based SAHH-coupled assay
T3 sequence (Q86X55 whole entry): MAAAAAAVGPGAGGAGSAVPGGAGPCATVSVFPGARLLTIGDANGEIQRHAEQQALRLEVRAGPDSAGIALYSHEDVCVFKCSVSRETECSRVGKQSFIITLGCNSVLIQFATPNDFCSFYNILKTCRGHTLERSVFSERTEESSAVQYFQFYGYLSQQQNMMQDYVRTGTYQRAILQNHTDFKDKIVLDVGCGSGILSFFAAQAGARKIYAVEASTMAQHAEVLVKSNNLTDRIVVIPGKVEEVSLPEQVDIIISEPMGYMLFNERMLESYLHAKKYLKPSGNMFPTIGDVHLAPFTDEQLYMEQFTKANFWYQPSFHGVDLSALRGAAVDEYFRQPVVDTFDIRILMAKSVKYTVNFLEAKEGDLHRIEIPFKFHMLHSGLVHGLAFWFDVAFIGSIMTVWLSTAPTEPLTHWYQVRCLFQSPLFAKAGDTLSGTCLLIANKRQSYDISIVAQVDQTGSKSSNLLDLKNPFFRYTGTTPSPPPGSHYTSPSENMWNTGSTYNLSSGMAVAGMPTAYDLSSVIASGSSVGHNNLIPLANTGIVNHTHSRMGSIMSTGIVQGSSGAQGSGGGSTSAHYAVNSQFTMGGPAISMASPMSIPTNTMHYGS

[12] = biological target: T1, Protein arginine N-methyltransferase 5; experiment: Inhibition of human PRMT5 by fluorescence-based SAHH-coupled assay

T2 sequence (Q99873 whole entry): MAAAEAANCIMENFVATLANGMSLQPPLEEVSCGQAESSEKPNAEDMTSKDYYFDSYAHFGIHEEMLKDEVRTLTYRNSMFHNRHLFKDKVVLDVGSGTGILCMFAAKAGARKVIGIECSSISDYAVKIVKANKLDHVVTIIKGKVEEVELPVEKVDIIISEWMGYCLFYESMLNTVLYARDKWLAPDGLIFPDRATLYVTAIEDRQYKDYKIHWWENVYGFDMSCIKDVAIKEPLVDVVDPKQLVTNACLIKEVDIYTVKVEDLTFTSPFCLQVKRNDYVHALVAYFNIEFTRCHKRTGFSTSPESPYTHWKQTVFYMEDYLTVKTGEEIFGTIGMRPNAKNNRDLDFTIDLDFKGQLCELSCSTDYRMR
T1 sequence (O14744 whole entry): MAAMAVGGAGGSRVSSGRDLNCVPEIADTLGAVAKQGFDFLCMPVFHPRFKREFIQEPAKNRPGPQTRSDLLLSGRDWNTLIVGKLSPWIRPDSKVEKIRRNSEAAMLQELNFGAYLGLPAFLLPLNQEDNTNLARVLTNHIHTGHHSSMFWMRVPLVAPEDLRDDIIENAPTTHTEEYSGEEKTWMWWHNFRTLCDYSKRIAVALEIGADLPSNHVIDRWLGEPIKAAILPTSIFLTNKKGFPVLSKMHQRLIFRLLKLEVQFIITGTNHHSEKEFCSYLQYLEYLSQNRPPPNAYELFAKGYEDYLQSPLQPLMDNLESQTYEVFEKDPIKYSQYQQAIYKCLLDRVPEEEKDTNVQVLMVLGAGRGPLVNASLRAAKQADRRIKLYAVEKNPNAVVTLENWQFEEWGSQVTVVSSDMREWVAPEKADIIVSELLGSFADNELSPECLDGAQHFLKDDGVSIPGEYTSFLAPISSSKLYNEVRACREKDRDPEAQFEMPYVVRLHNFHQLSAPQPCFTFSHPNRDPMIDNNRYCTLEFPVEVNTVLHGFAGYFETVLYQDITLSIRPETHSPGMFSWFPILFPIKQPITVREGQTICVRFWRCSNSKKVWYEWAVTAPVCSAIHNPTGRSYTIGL

IC50 [1]: 1700 nM
SMILES: Cc1ccc2[nH]c3c(c2c1)CCCC3NCCCOc1ccc(F)cc1 (centres undefined)

SMILES: Nc1ncnc2c1ccn2[C@@H]1O[C@H]([C@H](O)c2ccccc2)[C@@H](O)[C@H]1O
IC50 (A-375 [2]): 31.5 nM

IC50 [3]: 34.1 µM
SMILES: COC(=O)c1ccccc1NC(=O)CCN1CCc2ccccc2C1

IC50 (A-375 [2]): 10.8 nM
SMILES: Nc1ncnc2c1ccn2[C@@H]1O[C@H]([C@H](O)c2ccc(Cl)cc2)[C@@H](O)[C@H]1O
inhibition in vivo at 10 mg/kg (A-375 [4]): 64%

IC50 [1]: 5700 nM
SMILES: CCN(CC)CCNC1CCCc2c1[nH]c1ccc(C)cc21 (centres undefined)

IC50 [6]: 3 µM
SMILES: C[C@@H]1[C@H](O)[C@@H](CSCCCNC(=N)NCCCC[C@@H](N)C(N)=O)O[C@H]1n1cnc2c(N)ncnc21
IC50 [5]: 20000 nM

IC50 [7]: 6.6 µM
SMILES: COc1cc(Br)cc(/C=C2\SC(c3ccc(C)cc3)=NC2=O)c1O

IC50 [8]: 8.1 µM
SMILES: COc1cccc(/C=N/c2ccc(O)c(-c3nc4cc(C)ccc4o3)c2)c1O

IC50 [8]: 6.5 µM
SMILES: CCOC(=O)c1c(NC(=O)CSc2nnc3c4ccccc4n(CCc4ccccc4)c3n2)sc2c1CCN(C)C2

IC50 [8]: 60 µM
SMILES: CCc1ccc2oc(-c3cc(/N=C/c4cccc(C)c4O)ccc3O)nc2c1

IC50 [9]: 34 µM
SMILES: Nc1cccc(-c2cn(CC(O)CN3CCc4ccccc4C3)nn2)c1 (centres undefined)

IC50 [6]: 1.7 µM
SMILES: N=C(N)NCCC[C@H](N)C(=O)NCC(=O)N[C@H](CCNC(=N)NCSC[C@H]1O[C@@H](n2cnc3c(N)ncnc32)[C@H](O)[C@@H]1O)C(N)=O
IC50 [5]: 590 nM

IC50 [8]: 27 µM
SMILES: COc1ccc(OC)c(NC(=O)CSc2nnc3c4ccccc4c4ccccc4c3n2)c1

IC50 [9]: 2.4 µM
SMILES: OC(CN1CCc2ccccc2C1)Cn1cc(-c2cccc(NC3CCOCC3)c2)nn1 (centres undefined)

IC50 [9]: 0.72 µM
SMILES: OC(CN1CCc2ccccc2C1)Cn1cc(-c2cccc(NC3CCC3)c2)nn1 (centres undefined)
IC50 (Z-138): 2600 nM

IC50 [10]: 10 µM
IC50 [7]: 0.77 µM
SMILES: Cc1ccc(C2=NC(=O)/C(=C/c3ccc(O)c(O)c3)S2)cc1

IC50 (A-375 [2]): 44 nM
SMILES: C[C@@](O)(c1ccc(Cl)cc1)[C@H]1O[C@@H](n2ccc3c(N)ncnc32)[C@H](O)[C@@H]1O

IC50 [9]: 5.5 µM
SMILES: O=[N+]([O-])c1cccc(-c2cn(CC(O)CN3CCc4ccccc4C3)nn2)c1 (centres undefined)

IC50 [1]: 330 nM
SMILES: COC(=O)c1ccccc1NC(=O)CSc1nc2ccc(CO)cc2[nH]1

IC50 [7]: 13.9 µM
SMILES: COc1cc(Cl)cc(/C=C2\SC(c3ccc(C)cc3)=NC2=O)c1O

IC50 [11]: 2.8 nM
IC50 [12]: 0.42 nM
IC50 [6]: 5.9 µM
SMILES: N=C(N)NCCC[C@H](N)C(=O)NCC(=O)N[C@H](CCNC(=N)NCCSC[C@H]1O[C@@H](n2cnc3c(N)ncnc32)[C@H](O)[C@@H]1O)C(N)=O
IC50 [5]: 830 nM

Source: ChEMBL document CHEMBL5247612, “Medicinal chemistry strategies targeting PRMT5 for cancer therapy” (Eur J Med Chem, 2022)
